Assay results from patent US11065249B2, “Diacylglycerol acyl transferase 2 inhibitor” (Pfizer Inc., priority 2019, dated 2021).
Where a name gives a salt, the structure may show the parent alone.

What was measured:
[1] = Determination of pKa (capillary electrophoresis, Analiza); type: physicochemical; conditions: most basic pKa, mean
[2] = High throughput determination of intrinsic clearance in human hepatocytes; type: in vitro ADME; conditions: human, pooled cryopreserved human hepatocytes (suspension), high throughput human hepatocyte assay, 1 μM test compound; mean +/− Std Dev
Procedure: The incubation was carried out at 37° C. […] The samples were centrifuged (Eppendorf, Hauppauge, N.Y.) at 3000 rpm for 5 min at 4° C.

[3] = Intrinsic clearance in human liver microsomes; type: in vitro ADME; conditions: human, pooled human liver microsomes, pH 7.4, human liver microsome assay, 1 μM test compound; mean +/− STD Dev
Procedure: The incubations were conducted at 37° C. […] (Sorvall R C 3C Plus, Thermo Scientific, Waltham, Mass.).

Question: For `CCOc1cc(F)cnc1Oc1cncc(-c2ncc(C(=O)N[C@H]3CNCC[C@@H]3F)cn2)c1` [Example 13, 2-{5-[(3-ethoxy-5-fluoropyridin-2-yl)oxy]pyridin-3-yl}-N-[(3S,4S)-4-fluoropiperidin-3-yl]pyrimidine-5-carboxamide, formate salt], which pKa [1] is on record?
Answer: 6.7

Question: And the hepatocyte CLint at 1 μM [2]?
Answer: 12 µL/min/1e6 cells

Question: What about the microsomal CLint at 1 μM [3] of the same molecule?
Answer: 35 µL/min/mg

Question: Which results are given for `CCOc1cccnc1Oc1cncc(-c2ncc(C(=O)N[C@H]3CNCCC3(F)F)cn2)c1` (single isomer, unassigned) [Example 15, N-[(3S)-4,4-difluoropiperidin-3-yl]-2-{5-[(3-ethoxypyridin-2-yl)oxy]pyridin-3-yl}pyrimidine-5-carboxamide, trifluoroacetate salt or N-[(3R)-4,4-difluoropiperidin-3-yl]-2-{5-[(3-ethoxypyridin-2-yl)oxy]pyridin-3-yl}pyrimidine-5-carboxamide, trifluoroacetate salt]?
Answer: hepatocyte CLint at 1 μM [2]: 5.3 µL/min/1e6 cells; microsomal CLint at 1 μM [3]: 21 µL/min/mg

Question: Which pKa [1] does the source give for `CCOc1cccnc1Oc1cncc(-c2ncc(C(=O)N[C@H]3CNCC[C@@H]3F)cn2)c1` [Example 12, 2-{5-[(3-ethoxypyridin-2-yl)oxy]pyridin-3-yl}-N-[(3S,4S)-4-fluoropiperidin-3-yl]pyrimidine-5-carboxamide, trifluoroacetate salt] here?
Answer: 7.5

Question: And the hepatocyte CLint at 1 μM [2]?
Answer: < 2.6 µL/min/1e6 cells

Question: What about the microsomal CLint at 1 μM [3] of the same molecule?
Answer: < 7 µL/min/mg

Question: For `CCOc1cccnc1Oc1cncc(-c2ncc(C(=O)N[C@@H]3CNCC(F)(F)C3)cn2)c1` (single isomer, unassigned) [Example 18, N-[(3S)-5,5-difluoropiperidin-3-yl]-2-{5-[(3-ethoxypyridin-2-yl)oxy]pyridin-3-yl}pyrimidine-5-carboxamide or N-[(3R)-5,5-difluoropiperidin-3-yl]-2-{5-[(3-ethoxypyridin-2-yl)oxy]pyridin-3-yl}pyrimidine-5-carboxamide], which pKa [1] is on record?
Answer: 5.2

Question: What about the hepatocyte CLint at 1 μM [2] of the same molecule?
Answer: 9.3 µL/min/1e6 cells

Question: And the microsomal CLint at 1 μM [3]?
Answer: 19 µL/min/mg

Question: For `CCOc1cc(F)cnc1Oc1cncc(-c2ncc(C(=O)N[C@@H]3CNCC[C@H]3F)cn2)c1` [Example 6, 2-{5-[(3-Ethoxy-5-fluoropyridin-2-yl)oxy]pyridin-3-yl}-N-[(3R,4R)-4-fluoropiperidin-3-yl]pyrimidine-5-carboxamide], which pKa [1] is on record?
Answer: 7.4

Question: And the hepatocyte CLint at 1 μM [2]?
Answer: 4.7 µL/min/1e6 cells

Question: And the microsomal CLint at 1 μM [3]?
Answer: < 7.8 µL/min/mg

Question: Which microsomal CLint at 1 μM [3] does the source give for `CCOc1cccnc1Oc1cncc(-c2ncc(C(=O)NC3CCCNC3C)cn2)c1` (mixture of isomers) [Example 23, 2-{5-[(3-ethoxypyridin-2-yl)oxy]pyridin-3-yl}-N-(2-methylpiperidin-3-yl)pyrimidine-5-carboxamide, trifluoroacetate salt, mixture of stereoisomers] here?
Answer: < 8 µL/min/mg

Question: For `CCOc1cc(F)cnc1Oc1cncc(-c2ncc(C(=O)N[C@@H]3CNC[C@@H](F)C3)cn2)c1` [Example 2, 2-{5-[(3-Ethoxy-5-fluoropyridin-2-yl)oxy]pyridin-3-yl}-N-[(3S,5S)-5-fluoropiperidin-3-yl]pyrimidine-5-carboxamide], which pKa [1] is on record?
Answer: 7.3

Question: And the hepatocyte CLint at 1 μM [2]?
Answer: 3.6 µL/min/1e6 cells

Question: What about the microsomal CLint at 1 μM [3] of the same molecule?
Answer: < 7 µL/min/mg

Question: With `CCOc1cccnc1Oc1cncc(-c2ncc(C(=O)N[C@@H]3CCCNC3)cn2)c1` [Example 22, 2-{5-[(3-ethoxypyridin-2-yl)oxy]pyridin-3-yl}-N-[(3R)-piperidin-3-yl]pyrimidine-5-carboxamide, trifluoroacetate salt] as the molecule, how does the microsomal CLint at 1 μM [3] read?
Answer: < 8 µL/min/mg

Question: With `CCOc1cccnc1Oc1cncc(-c2ncc(C(=O)NC3CCCNC3)cn2)c1` (stereo not shown) [Example 21, 2-{5-[(3-ethoxypyridin-2-yl)oxy]pyridin-3-yl}-N-(piperidin-3-yl)pyrimidine-5-carboxamide, trifluoroacetate salt] as the molecule, how does the microsomal CLint at 1 μM [3] read?
Answer: < 8 µL/min/mg

Question: What does the source list for `CCOc1cccnc1Oc1cncc(-c2ncc(C(=O)N[C@H]3CCCNC3)cn2)c1` [Example 14, 2-{5-[(3-ethoxypyridin-2-yl)oxy]pyridin-3-yl}-N-[(3S)-piperidin-3-yl]pyrimidine-5-carboxamide, trifluoroacetate salt]?
Answer: hepatocyte CLint at 1 μM [2]: < 1.8 µL/min/1e6 cells; microsomal CLint at 1 μM [3]: < 8 µL/min/mg
